Laboratory results reported in patent US12023319B2, “Carboxylic acid aromatic amides” (priority 2016, dated 2024).

How the values were obtained:
Male Sprague Dawley rats = experiment: Rat CFA in vivo model (mechanical hyperalgesia, paw withdrawal threshold); settings: 2 hours post-compound
Description: Male Sprague Dawley rats were used. Mechanical hyperalgesia was induced by injecting 25 μL of Complete Freund's Adjuvant (CFA) into the plantar surface of one hind paw. Mechanical hyperalgesia was measured using the Pressure Application Measurement apparatus (Ugo Basile, Gemonio, Italy). Briefly, a linearly increasing pressure was applied to an area of ˜50 mm^2 of the plantar side of the hind paw until a behavioural response (paw withdrawal) was observed or until the pressure reached 1000 gf. The pressure at which the behavioural response occurred was recorded as the “Paw Withdrawal Threshold” (PWT). Both CFA-injected and contralateral PWTs were determined for each rat, in each treatment group and at each time point of the studies. The Compound Examples were administered orally in a vehicle of dimethylsulfoxide (DMSO), Polyethylenglycol (PEG) and 2-hydroxypropyl-beta-cyclodextrin (HPCD) (v/v/v=3:20:77). Rats received a first dose of […] of Compound Example per kg body weight 1 hour before CFA injection and a second dose 24 hours after the CFA injection. Mechanical hyperalgesia testing was performed approximately 2 hours before CFA injection, then 2 and 4 hours after the second dose of Compound Example (i.e. 26 and 28 hours after CFA treatment). Data were expressed as the mean±S.D. Area Under the Curve (AUC) of PWTs (defined in table 3 as “AUC of Paw withdrawal threshold (AUC 0-4 hours) post-vehicle” with respect to vehicle group or “AUC of Paw withdrawal threshold (AUC 0-4 hours) post-drug” with respect to Compound Example). Data were analysed by performing a one-way ANOVA followed by a Dunnett's post hoc test. For p values less than 0.05 the results were deemed to be statistically significant.

[1] = system: B6-Mice expressing the human B1 receptor; experiment: Mouse model for peritonitis (thioglycollate induced, peroxidase activity in lavage); type: in vivo; settings: p.o. 30, 100 mg/kg, lavage 24 h after induction, significantly, FIG. 7
Description: 6. Mouse Model for Peritonitis
Black 6 (B6)-Mice expressing the human B1 receptor, lacking the murine B1 receptors which were specifically generated (B6-hBDKRB1 <tm1Arte>/N) and employed for a thioglycollate induced peritonitis model to test for effects of Bradykinin B1 receptor antagonism on peritoneal inflammation and related leukocyte trafficking which reflects the mode of actions underlying endometriosis.
Animals were treated p.o. with Compound Example 3 (doses: 30 mg/kg, 100 mg/kg) or respective vehicle (10% DMSO+90% phosphate buffered saline (PBS) alone 1 h before i.p. application of 1 ml 4% thioglycollate medium (in sterile PBS, matured for >4 weeks). The treatment with vehicle or Compund Example 3 was repeated 3 and 24 hours after induction of peritonitis. 24 h after peritonitis induction the animals were sacrificed and a lavage of peritoneal fluid performed. The resulting lavage is analysed for peroxidase enzyme activity which is reflecting number of activated neutrophils in the peritoneal cavity by peroxidase activity assay as follows:
Tetramethylbenzidine (TMB) dihydrochloride is used as a sensitive chromogen substrate for peroxidase. […]
Changes in optical densities (OD) are monitored in an ELISA plate-reader at 450 nm at 25° Celsius against the mixture of all solutions without the added sample homogenate. […]

male Lewis rats = experiment: In vivo adjuvant-induced arthritis (AIA) model; design: species or system rat
Description: 10. In Vivo Adjuvant-Induced Arthritis (AIA) Model
The AIA model is characterized by a rapid onset and progression to polyarticular inflammation. Following the injection of CFA, signs of arthritis usually develop between day 10 and day 14. Typically, the disease is severe and leads to permanent joint malformations, including ankylosis. Joint swelling, lymphocyte infiltration, and cartilage degradation are shared features with human autoimmune arthritis.
To determine the anti-inflammatory activity of the Compound Examples, they were examined for their in vivo efficacy in an arthritis model. For this purpose, male Lewis rats (about 100 to 125 g, Charles River Laboratories, Germany) were each administered 100 μl of a complete Freund's adjuvant (CFA) solution (M. tuberculosis H37Ra [Difo Lab, Cat. No. 231141] dissolved in Incomplete Freund's adjuvant [Difco Lab, Cat. No. 263910]) into the tailhead subcutaneously on day 0. There were n=8 rats in each group. Both, a healthy control group and a disease control group treated with the vehicle only were included in the study. Each control group was given oral (p.o. or PO) treatment only with the vehicle (5% DMSO/95% PBS) of the Compound Examples. The treatment with different dosages of the Compound Examples dissolved in the vehicle was conducted in a preventative manner, i.e. starting from day 0 and continued to day 20, the end of the study, by daily oral administration. On day 0, the starting condition of the animals was determined in terms of the disease activity scores (rating of the severity of arthritis based on a points system). Here, points were awarded according to the extent of joint inflammation from 0 to 4 for the presence of an erythema including joint swelling (0=none; 1=slight; 2=moderate; 3=distinct; 4=severe) for both hind paws and were summed up to a single value. […] In addition, the extent of joint swelling was detected by measuring the ankles of hind paws sagittal×transversal [in mm^2] using an automated caliper (Bayer AG, Germany). Next to this, the grip strength, as a measure for hyperalgesia, using an automated grip strength test meter (IITC Life Science Inc., USA) was evaluated.
Statistical analysis of obtained results for all parameters were done with one way Anova (ANOVA; Analysis of variance) and the comparison to the control group via multiple reference analysis (Dunnett-test).

O=C(O)c1cc(NC(=O)C2(c3ccc(C(F)(F)F)cc3F)CC2)ccc1-c1cnn(C2CCC2)c1 [Example 3, 2-(1-Cyclobutyl-1H-pyrazol-4-yl)-5-[({1-[2-fluoro-4-(trifluoromethyl)phenyl]cyclopropyl}carbonyl)amino]benzoic acid]
Paw withdrawal threshold 2 hours post-compound (Male Sprague Dawley rats; 0.75 mg/kg p.o.): 659 ± 20 gf (ns) | Paw withdrawal threshold 2 hours post-compound (Male Sprague Dawley rats; 3 mg/kg p.o.): 782 ± 50 gf (****) | Paw withdrawal threshold 2 hours post-compound (Male Sprague Dawley rats; 15 mg/kg p.o.): 812 ± 44 gf (****) | Paw withdrawal threshold 2 hours post-compound (Male Sprague Dawley rats; 60 mg/kg p.o.): 885 ± 30 gf (****) | signal specific for neutrophil influx into inflamed tissue (peroxidase activity) [1]: reduced | dose-dependency in the adjuvant-induced arthritis (AIA) model (male Lewis rats; 60, 15 or 3 mg/kg QD p.o., day 0 to day 20): clear dose-dependency | severity of rat AIA (male Lewis rats; oral treatment with 60 mg/kg once daily): significantly inhibited | disease activity score (male Lewis rats; rat AIA model, oral once daily, FIG. 14A): reduction | extent of joint swelling (male Lewis rats; rat AIA model, oral once daily, FIG. 14B): reduction | grip strength (hyperalgesia) (male Lewis rats; rat AIA model, oral once daily, FIG. 15): increase
